The values below come from patent US11478488B2, “Co-crystals of tramadol and coxibs” (ESTEVE PHARMACEUTICALS, S.A., priority 2009, dated 2022).

Where two headings read alike, the source gives them in different places.

The test system of test [1] is incision-induced mechanical allodynia in the incised rat hind paw. Kind of test: Mechanical allodynia (von Frey filaments) in paw incision postoperative pain model. The note with it: ip. The format is in vivo, Wistar rats. The method, then:
(§1) Male, Wistar rats (120-160 g, Harlan, Italy) were housed in a climate-controlled room for at least 5 days prior to testing.
(§2) The dosing volume was 10 ml/kg. The antihyperalgesic or antiallodynic response of the animal was subsequently evaluated 60 min after drug administration.
(§3) Rats were anaesthetized with 3% isofluorane for veterinary use, employing an Ohmeda vaporizer and an anaesthesia chamber. Anaesthesia was kept during the surgical operation by a tube which directs the isoflurane vapours to the animal's snout. Once the rats were anaesthetised, they were laid down in a prone position and their right hindpaws were cleaned out with alcohol. Then, a 1 cm longitudinal incision was made with a number 23 scalpel, through skin and fascia of the plantar aspect of the paw, starting 0.5 cm from the proximal edge of the heel and extending toward the toes. Therefore, both superficial (skin) and deep (muscle) tissues and nerves were injured. Finally, the skin of the paw was stitched with a suturing stitch with breaded silk (3.0) and the wound was cleaned out with povidone.
(§4) The drugs were tested 4 hours after the surgery (plantar incision); 60 minutes after the administration of the product, two behavioural endpoints were evaluated: thermal hypersensitivity or hyperalgesia, and mechanical hypersensitivity or allodynia.
Mechanical allodynia was tested using von Frey filaments. Animals were placed in methacrylate cylinders on an elevated surface, with metallic mesh floor perforated in order to apply the filaments. After an acclimation period of about 30 minutes within the cylinders, both hindpaws were stimulated (the injured and the non-injured paw, serving the latter as control), starting with the lowest force filament (0.4 g) and reaching up to a 15 g filament. The animal's response to pain was manifested by the withdrawal of the paw as a consequence of the painful stimulus caused by a filament. The pressure (force in grams) threshold eliciting the withdrawal of the paw was recorded.
Where it is established that Zmix<Zadd for a specific fixed-ratio, then that composition has a synergistic anti-hyperalgesic effect. Both ED50 mix and ED50 add values are random variables. ED50 mix is determined from the dose-response curve for a specific fixed-ratio of the components; ED50 add is calculated from the ED50 values for the individual drugs. Zmix is then compared to Zadd via a Student's t-test.

Test [2] has as its system incision-induced thermal hyperalgesia in the incised rat hind paw. Kind of test: Thermal hyperalgesia (plantar test, Hargreaves) in paw incision postoperative pain model. The test is classed as in vivo, Wistar rats. Particulars: for ED50: read-out: ED50 thermal hyperalgesia (after sigmoidal adjustment); for Efficacy on thermal hyperalgesia: rat paw incision, intraperitoneal dose response, FIG. 8. On the procedure:
as §1, §2, §3, §4
Animals were placed in the methacrylate cages of said apparatus, having a crystal floor. The acclimation period within the cages was about 10 minutes. The thermal stimulus came from a lamp moving below the crystal floor and which was applied to both paws, with a minimum interval of 1 minute between both stimulations in order to avoid learning behaviours. The rat is able to withdraw the paw freely when it feels discomfort (pain) produced by the heat coming from the lamp; then it is switched off and the latency time to the withdrawal response is recorded in seconds. In order to avoid hurting the animal's paw, the lamp was automatically switched off after 32 seconds.

In test [3] the test system is motor behaviour of monoarthritic rats (carrageenan-induced gait changes). As to the kind of experiment: Pain-induced gait adaptation (CBMS) in carrageenan-induced acute monoarthritic model. Particulars: intraperitoneal 4.5 h after carrageenan, measured 30 min after administration; co-crystal 20 mg/kg, single drugs at corresponding dose.
Experimental: Movement-evoked pain was evaluated by a computerized behavioral monitoring system (CBMS).
The rat carrageenan model utilizes inflammation-associated pain following injection of the knee joint (monoarthritic model). […] The CBMS was used to assess gait related changes 5 hours after carrageenan injection and 30 min after drugs administration. […] Mechanical allodynia was measured with von Frey filaments 15 minutes after CBMS gait analysis.
Food and water were available ad libitum up to test time.
The dosing volume was 2 ml/kg. The drug response of the animal was subsequently evaluated 30 and 45 min after drug administration (for CBMS and von Frey respectively).
Joint inflammation was induced by carrageenan (Sigma Chemical, St. Louis, Mo.) injected percutaneously using a 30-gauge needle through the infrapatellar ligament into the right knee joint cavity (300 μg, 40 μl) with the animal under brief isoflurane (IsoFlo®, Abbott-Esteve, Barcelona, Spain) anaesthesia (3%).
Detailed analysis of gait was performed on walking rats using the CBMS method. Briefly, light from a fluorescent tube is sent through a glass plate. Light rays are completely reflected internally. As soon as anything, e.g. a rat's paw, is in contact with the glass surface, light is reflected downwards. It results in a sharp image of a bright paw print. The whole run is recorded via a camera placed under the glass plate. […]
Setting [4] is: intraperitoneal single dose, 4 h after surgery, evaluated 60 min after administration, read-out: ED50 mechanical allodynia (after sigmoidal adjustment).
Where [5] appears, read: intraperitoneal, separate ED50 of single drugs for isobologram analysis, read-out: ED50 on mechanical allodynia as used in the isobologram (FIG. 7).

For the compound `COc1cccc(C2(O)CCCCC2CN(C)C)c1` (racemic) [Tramadol, 2-(dimethylaminomethyl)-1-(3-methoxyphenyl)cyclohexanol], the ED50 in test [1] (setting [4]) was found to be 5.41 mg/kg; in test [1] (setting [5]), 5.28 mg/kg; in test [2] (Rattus norvegicus, ip), 8.3 mg/kg. In addition, the “Efficacy on thermal hyperalgesia” value in test [2] is given as “full efficacy”. Besides, the “Effect on carrageenan-induced gait changes (CBMS)” value in test [3] is given as “inhibited”.
In the case of `Cc1ccc(-c2cc(C(F)(F)F)nn2-c2ccc(S(N)(=O)=O)cc2)cc1` [Celecoxib, 4-[5-(4-methylphenyl)-3-(trifluoromethyl)-pyrazol-1-yl]benzenesulfonamide], the ED50 turned out to be 3.03 mg/kg in test [1] (setting [4]); 3.01 mg/kg in test [1] (setting [5]); 2.35 mg/kg in test [2] (Rattus norvegicus, ip). Moreover, the Emax in test [2] (Rattus norvegicus, ip, 1 h, read-out: Emax thermal hyperalgesia, rat paw incision, intraperitoneal, 60 min after administration) turned out to be 45%. In addition, the “Efficacy on thermal hyperalgesia” value in test [2] was “only a partial response”. Also, the “Effect on carrageenan-induced gait changes (CBMS)” value in test [3] is “inhibited”.

By ED50 is commonly meant the midpoint of the dose-response relation.
